Source: patent US20240009239A1, “THERAPEUTIC TARGETING OF MESOTHELIN IN ACUTE MYELOID LEUKEMIA WITH CHIMERIC ANTIGEN RECEPTOR T CELL THERAPY” (FRED HUTCHINSON CANCER CENTER, priority 2020, published 2024)

Key:
[1] = tested on: ADAM17-mediated MSLN shedding; experiment: Cell surface mesothelin on Nomo-1 by flow cytometry after GM6001; type: cell-based; details: Nomo-1 cells, GM6001 50 uM, 48 hours, vs DMSO control
Procedure: Cell surface abundance and viability were measured by flow cytometry (FIG. 2A) and shed MSLN was quantified by ELISA (FIG. 2B). […] Data presented are mean tumor specific lysis+/−standard deviation from 3 technical replicates at indicated E:T ratios for 3 independent experiments. […] Secreted levels of IFN-g (left panel) and TNF-a (right panel) were measured after 8 hours of T cell/AML co-culture at E:T 10:1 by ELISA. Data presented are mean+/−standard deviation from 3 technical replicates. Statistical significance was determined by unpaired Student's t test, assuming unequal variances. p<0.05(*), p<0.005(**), p<0.0005(***).
Nomo-1 and Kasumi-1 were obtained from ATCC and maintained in RPMI with FBS (10% for Nomo-1, 20% for Kasumi-1) and L-glutamine (2 mM). […] The Kasumi-1 MSLN+ cell line was engineered by transducing Kasumi-1 cells with a lentivirus encoding MSLN driven by the ELF1a promoter.
For in vivo CAR T study, Nomo-1 cells, which express endogenous level of MSLN, and Kasumi-1 cells engineered to express MSLN with a lentivirus construct (Kasumi-1 MSLN+) were transplanted into NSG mice. Mock transduced MSLN-directed CAR T cells were infused 1 week (Nomo-1) and 2 weeks (Kasumi-1 MSLN+) following leukemic cell injection. Leukemic burden was measured by bioluminescence IVIS imaging weekly.

[2] = tested on: Nomo-1 cells; experiment: Viability of Nomo-1 cells after GM6001 without CAR T cells; type: cell-based; details: GM6001 treatment, data not shown
From the text: FIGS. 2A-2D. […] FIGS. 2A-2B. […] FIG. 2C. […] FIG. 2D.
AML cell lines and GM6001 treatment.

CNC(=O)[C@H](Cc1c[nH]c2ccccc12)NC(=O)[C@@H](CC(=O)NO)CC(C)C [GM6001]
level of cell surface mesothelin [1]: increased | cell viability of Nomo-1 cells in the absence of CAR T cells [2]: did not significantly impact
